Test results: patent publication US5955500A (G. D. Searle & Co., priority 1997, dated 1999)
Read-outs that look alike come from different tables or passages of the source.

Tested on: canine heart
Details: for AH time / Heart rate / Mean arterial pressure: mean ± SE
Experimental: Fourteen adult mongrel dogs of either sex weighing between 19 and 25 kg were prepared for chronic electrophysiologic investigation by implanting epicardial electrodes and an indwelling aortic catheter. The dogs were fasted overnight and initially anesthetized with halothane on the day of surgery. After tracheal intubation, anesthesia was maintained with isoflurane and oxygen via positive pressure ventilation to keep end tidal carbon dioxide within the normal range. Muscular relaxation was induced by pancuronium. A right thoracotomy was performed in the fifth intercostal space. Three bipolar electrode pairs were sutured to the epicardial surface of the right atrial appendage and on the right and left ventricular apex (FIG. 5). A bipolar electrode was sutured to the right atrium close to the anatomical region of the sinoatrial node. A bipolar plunge electrode was placed into base of the interventricular septum to record a His bundle electrogram. An indwelling arterial catheter was placed into the aorta through the left femoral artery after surgical exposure of the artery at the inner side of the hind limb. All electrode leads were subcutaneously tunneled and exited through the skin between the scapulae. Incisions were closed in anatomic fashion and standard postoperative methods of analgesia were provided with 0.015 mg/kg of buprenorphine (Buprenex®, Reckitt & Colman, Hull, UK) and two times of 25 mg/kg cefazolin (Cefazolin Sodium®, SoloPak Laboratories, Elk Groove Village, Ill.) and dogs were allowed to recover from surgery for a period of seven days prior to testing.
Electrical signals from the bipolar electrodes, after suitable amplification in a custom built preamplifier (gain 1000), were filtered in a separate custom designed and built common mode rejection amplifier with a bandpass filter of 10-1000 Hz and individually adjusted for signal strength (maximal gain 400). […] Right atrial appendage (RA), right ventricular apex (RVA) and His bundle electrograms (HB) were recorded, simultaneously. […] All measurements of conduction times were made during spontaneous sinus rhythm.
The His bundle electrode (HBE) was advanced into the base of the interatrial septum from the aortic root. The electrode was advanced from a point located just behind and to the right of the origin of the right coronary artery. The HBE was slowly advanced parallel to the aorta, inferiorly and slightly anteriorly until a well discernible His potential was recorded. AV conduction (AH) interval was measured as the time difference (ms) between the onset of the initial rapid deflection in the RA electrogram to the beginning of the His potential in the HB electrogram. His-ventricular (HV) conduction time interval (ms) was measured from the beginning of the His potential (HBE) to the initial deflection of the QRS complex wave (earliest left ventricular activation) in a simultaneously recorded surface ECG lead II.
As an indicator of automaticity, sinus node recovery time (SNRT) was determined by pacing the right atrial appendage (30 s at 180 and 200 beats/min at 2 msec pulse duration; 2×threshold). SNRT was measured from the last pacing spike to the first spontaneous atrial activity on the His bundle electrogram after cessation of pacing (ms).
A timed extrastimulus (S2) was delivered 300 ms after the preceding pacing spike (S1).
Verapamil was dissolved in 5% dextrose and water ([…]).
During the postoperative period, each dog was trained to stand quietly in a sling during electrophysiological monitoring. Prior to measurement, electrical signals in each dog were monitored to verify the absence of spontaneous arrhythmias other-than normal respiratory sinus arrhythmias.
From the resting dog, 5 channel records were obtained at a sampling rate of 1 kHz per channel for 7 min to determine the following conduction intervals: AH, HV, QRS, QT and HR. A corrected QT interval [QTc=QT interval in ms/ (R-R interval in s)^1/2 ] was also calculated.

COc1ccc(CCN(C)CCCC(C#N)(c2ccc(OC)c(OC)c2)C(C)C)cc1OC (racemic) [90/10S]
AH time (0.1 mg/kg i.v., 0 min): 87 ± 6 ms
Heart rate (0.1 mg/kg i.v., 0 min): 111 ± 7 beats per min
Mean arterial pressure (0.1 mg/kg i.v., 0 min): 94 ± 3 mmHg
AH time (0.1 mg/kg i.v., 1 min): 88 ± 6 ms
Heart rate (0.1 mg/kg i.v., 1 min): 103 ± 7 beats per min
Mean arterial pressure (0.1 mg/kg i.v., 1 min): 97 ± 4 mmHg
AH time (0.1 mg/kg i.v., 2 min): 90 ± 6 ms
Heart rate (0.1 mg/kg i.v., 2 min): 104 ± 6 beats per min
Mean arterial pressure (0.1 mg/kg i.v., 2 min): 99 ± 3 mmHg
AH time (0.1 mg/kg i.v., 3 min): 91 ± 6 ms
Heart rate (0.1 mg/kg i.v., 3 min): 101 ± 8 beats per min
Mean arterial pressure (0.1 mg/kg i.v., 3 min): 99 ± 3 mmHg
AH time (0.1 mg/kg i.v., 4 min): 89 ± 6 ms
Heart rate (0.1 mg/kg i.v., 4 min): 101 ± 7 beats per min
Mean arterial pressure (0.1 mg/kg i.v., 4 min): 100 ± 4 mmHg
AH time (0.1 mg/kg i.v., 5 min): 89 ± 7 ms
Heart rate (0.1 mg/kg i.v., 5 min): 103 ± 7 beats per min
Mean arterial pressure (0.1 mg/kg i.v., 5 min): 99 ± 3 mmHg
AH time (0.2 mg/kg i.v., 0 min): 91 ± 7 ms
Heart rate (0.2 mg/kg i.v., 0 min): 123 ± 7 beats per min
Mean arterial pressure (0.2 mg/kg i.v., 0 min): 94 ± 4 mmHg
AH time (0.2 mg/kg i.v., 1 min): 95 ± 8 ms
Heart rate (0.2 mg/kg i.v., 1 min): 124 ± 10 beats per min
Mean arterial pressure (0.2 mg/kg i.v., 1 min): 98 ± 4 mmHg
AH time (0.2 mg/kg i.v., 2 min): 99 ± 8 ms
Heart rate (0.2 mg/kg i.v., 2 min): 116 ± 7 beats per min
Mean arterial pressure (0.2 mg/kg i.v., 2 min): 99 ± 4 mmHg
AH time (0.2 mg/kg i.v., 3 min): 98 ± 7 ms
Heart rate (0.2 mg/kg i.v., 3 min): 113 ± 6 beats per min
Mean arterial pressure (0.2 mg/kg i.v., 3 min): 99 ± 4 mmHg
AH time (0.2 mg/kg i.v., 4 min): 97 ± 7 ms
Heart rate (0.2 mg/kg i.v., 4 min): 116 ± 7 beats per min
Mean arterial pressure (0.2 mg/kg i.v., 4 min): 100 ± 4 mmHg
AH time (0.2 mg/kg i.v., 5 min): 104 ± 7 ms
Heart rate (0.2 mg/kg i.v., 5 min): 118 ± 8 beats per min
Mean arterial pressure (0.2 mg/kg i.v., 5 min): 101 ± 3 mmHg
AH time (0.4 mg/kg i.v., 0 min): 100 ± 9 ms
Heart rate (0.4 mg/kg i.v., 0 min): 145 ± 10 beats per min
Mean arterial pressure (0.4 mg/kg i.v., 0 min): 83 ± 7 mmHg
AH time (0.4 mg/kg i.v., 1 min): 111 ± 10 ms
Heart rate (0.4 mg/kg i.v., 1 min): 134 ± 9 beats per min
Mean arterial pressure (0.4 mg/kg i.v., 1 min): 89 ± 7 mmHg
AH time (0.4 mg/kg i.v., 2 min): 116 ± 10 ms
Heart rate (0.4 mg/kg i.v., 2 min): 128 ± 10 beats per min
Mean arterial pressure (0.4 mg/kg i.v., 2 min): 90 ± 7 mmHg
AH time (0.4 mg/kg i.v., 3 min): 116 ± 12 ms
Heart rate (0.4 mg/kg i.v., 3 min): 128 ± 11 beats per min
Mean arterial pressure (0.4 mg/kg i.v., 3 min): 90 ± 7 mmHg
AH time (0.4 mg/kg i.v., 4 min): 114 ± 9 ms
Heart rate (0.4 mg/kg i.v., 4 min): 129 ± 10 beats per min
Mean arterial pressure (0.4 mg/kg i.v., 4 min): 93 ± 7 mmHg
AH time (0.4 mg/kg i.v., 5 min): 112 ± 10 ms
Heart rate (0.4 mg/kg i.v., 5 min): 125 ± 9 beats per min
Mean arterial pressure (0.4 mg/kg i.v., 5 min): 92 ± 7 mmHg
Sinus node recovery time (SNRT), significance (paced at 200 beats/min): significant decrease

COc1ccc(CCN(C)CCCC(C#N)(c2ccc(OC)c(OC)c2)C(C)C)cc1OC (racemic) [80/20S]
AH time (0.1 mg/kg i.v., 0 min): 90 ± 4 ms
Heart rate (0.1 mg/kg i.v., 0 min): 125 ± 8 beats per min
Mean arterial pressure (0.1 mg/kg i.v., 0 min): 96 ± 3 mmHg
AH time (0.1 mg/kg i.v., 1 min): 95 ± 5 ms
Heart rate (0.1 mg/kg i.v., 1 min): 126 ± 7 beats per min
Mean arterial pressure (0.1 mg/kg i.v., 1 min): 99 ± 3 mmHg
AH time (0.1 mg/kg i.v., 2 min): 97 ± 5 ms
Heart rate (0.1 mg/kg i.v., 2 min): 119 ± 7 beats per min
Mean arterial pressure (0.1 mg/kg i.v., 2 min): 98 ± 3 mmHg
AH time (0.1 mg/kg i.v., 3 min): 98 ± 5 ms
Heart rate (0.1 mg/kg i.v., 3 min): 115 ± 7 beats per min
Mean arterial pressure (0.1 mg/kg i.v., 3 min): 99 ± 3 mmHg
AH time (0.1 mg/kg i.v., 4 min): 96 ± 5 ms
Heart rate (0.1 mg/kg i.v., 4 min): 116 ± 8 beats per min
Mean arterial pressure (0.1 mg/kg i.v., 4 min): 100 ± 3 mmHg
AH time (0.1 mg/kg i.v., 5 min): 96 ± 6 ms
Heart rate (0.1 mg/kg i.v., 5 min): 123 ± 7 beats per min
Mean arterial pressure (0.1 mg/kg i.v., 5 min): 100 ± 3 mmHg
AH time (0.2 mg/kg i.v., 0 min): 99 ± 5 ms
Heart rate (0.2 mg/kg i.v., 0 min): 136 ± 9 beats per min
Mean arterial pressure (0.2 mg/kg i.v., 0 min): 89 ± 2 mmHg
AH time (0.2 mg/kg i.v., 1 min): 111 ± 8 ms
Heart rate (0.2 mg/kg i.v., 1 min): 134 ± 8 beats per min
Mean arterial pressure (0.2 mg/kg i.v., 1 min): 95 ± 4 mmHg
AH time (0.2 mg/kg i.v., 2 min): 115 ± 9 ms
Heart rate (0.2 mg/kg i.v., 2 min): 129 ± 7 beats per min
Mean arterial pressure (0.2 mg/kg i.v., 2 min): 94 ± 4 mmHg
AH time (0.2 mg/kg i.v., 3 min): 113 ± 8 ms
Heart rate (0.2 mg/kg i.v., 3 min): 124 ± 7 beats per min
Mean arterial pressure (0.2 mg/kg i.v., 3 min): 97 ± 4 mmHg
AH time (0.2 mg/kg i.v., 4 min): 115 ± 9 ms
Heart rate (0.2 mg/kg i.v., 4 min): 125 ± 8 beats per min
Mean arterial pressure (0.2 mg/kg i.v., 4 min): 99 ± 3 mmHg
AH time (0.2 mg/kg i.v., 5 min): 116 ± 9 ms
Heart rate (0.2 mg/kg i.v., 5 min): 123 ± 9 beats per min
Mean arterial pressure (0.2 mg/kg i.v., 5 min): 98 ± 3 mmHg
AH time (0.4 mg/kg i.v., 0 min): 111 ± 5 ms
Mean arterial pressure (0.4 mg/kg i.v., 0 min): 87 ± 3 mmHg
Heart rate (0.4 mg/kg i.v., 0 min, listed as 80/205): 155 ± 12 beats per min
AH time (0.4 mg/kg i.v., 1 min): 121 ± 4 ms
Mean arterial pressure (0.4 mg/kg i.v., 1 min): 95 ± 3 mmHg
Heart rate (0.4 mg/kg i.v., 1 min, listed as 80/205): 153 ± 11 beats per min
AH time (0.4 mg/kg i.v., 2 min): 123 ± 5 ms
Mean arterial pressure (0.4 mg/kg i.v., 2 min): 97 ± 3 mmHg
Heart rate (0.4 mg/kg i.v., 2 min, listed as 80/205): 149 ± 10 beats per min
AH time (0.4 mg/kg i.v., 3 min): 125 ± 6 ms
Mean arterial pressure (0.4 mg/kg i.v., 3 min): 101 ± 3 mmHg
Heart rate (0.4 mg/kg i.v., 3 min, listed as 80/205): 147 ± 10 beats per min
AH time (0.4 mg/kg i.v., 4 min): 127 ± 6 ms
Mean arterial pressure (0.4 mg/kg i.v., 4 min): 103 ± 3 mmHg
Heart rate (0.4 mg/kg i.v., 4 min, listed as 80/205): 140 ± 7 beats per min
AH time (0.4 mg/kg i.v., 5 min): 129 ± 6 ms
Mean arterial pressure (0.4 mg/kg i.v., 5 min): 103 ± 3 mmHg
Heart rate (0.4 mg/kg i.v., 5 min, listed as 80/205): 135 ± 9 beats per min
Occurrence of second and third degree AV conduction block (0.4 mg/kg i.v., listed as 80R/20S-verapamil): 3 animals
